Assay results reported in ChEMBL document CHEMBL1201862, “PubChem BioAssay data set” (2004).
Where “and” joins values, the source holds several entries; their conditions need not be identical. Equal entries are not always repeated. Calls of active or inactive are those of the source.

Legend:
[1] = biological target: 1-acylglycerol-3-phosphate O-acyltransferase ABHD5/Perilipin-5 (Homo sapiens, UniProt Q00G26+Q8WTS1); assay: Luminescence-based biochemical high throughput dose response assay for inhibitors of the interaction of the lipase co-activator protein, abhydrolase domain containing 5 (ABHD5) with perilipin-5 (MLDP; PLIN5) (2K validation set). [Related pubchem assays (depositor defined):AID493035, AID493241]
[2] = biological target: T1, Polyadenylate-binding protein 1 (Homo sapiens, UniProt P11940); assay: PABP1 MLLE–PAM2 interaction inhibitors, dose response, miRNA deadenylation inhibitor project, biochemical, fluorescence polarization, Cy5-PAM2 peptide, secondary (AID 602260); assay type: functional; conditions: read-out: IC50_Mean
T1 sequence (P11940 whole entry, the tested form may be a part): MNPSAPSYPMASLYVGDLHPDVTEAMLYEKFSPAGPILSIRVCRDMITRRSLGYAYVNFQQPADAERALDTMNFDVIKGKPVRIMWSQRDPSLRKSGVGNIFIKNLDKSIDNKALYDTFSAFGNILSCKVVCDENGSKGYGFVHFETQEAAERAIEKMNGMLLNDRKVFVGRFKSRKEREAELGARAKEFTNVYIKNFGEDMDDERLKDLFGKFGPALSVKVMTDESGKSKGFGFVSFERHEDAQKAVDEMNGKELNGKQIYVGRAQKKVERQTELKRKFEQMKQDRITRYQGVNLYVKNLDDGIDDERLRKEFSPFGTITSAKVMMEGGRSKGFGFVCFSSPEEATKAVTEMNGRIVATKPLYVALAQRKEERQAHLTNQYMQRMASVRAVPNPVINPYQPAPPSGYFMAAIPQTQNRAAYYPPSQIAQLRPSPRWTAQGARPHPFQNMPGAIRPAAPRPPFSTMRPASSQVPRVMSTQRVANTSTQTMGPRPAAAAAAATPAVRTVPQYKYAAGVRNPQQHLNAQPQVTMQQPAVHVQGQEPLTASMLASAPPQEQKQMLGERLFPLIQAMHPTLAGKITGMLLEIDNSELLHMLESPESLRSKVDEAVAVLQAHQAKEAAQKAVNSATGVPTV

Perilipin-1/ABHD5 = Perilipin-1/ABHD5 (Homo sapiens, UniProt O60240+Q8WTS1); assay: Luminescence-based biochemical high throughput dose response assay for inhibitors of the interaction of the lipase co-activator protein, abhydrolase domain containing 5 (ABHD5) with perilipin-1 (PLIN1) (2K validation set). [Related pubchem assays (depositor defined):AID493027, AID493057]
Chain of Perilipin-1/ABHD5 (Q8WTS1 whole entry, the tested form may be a part): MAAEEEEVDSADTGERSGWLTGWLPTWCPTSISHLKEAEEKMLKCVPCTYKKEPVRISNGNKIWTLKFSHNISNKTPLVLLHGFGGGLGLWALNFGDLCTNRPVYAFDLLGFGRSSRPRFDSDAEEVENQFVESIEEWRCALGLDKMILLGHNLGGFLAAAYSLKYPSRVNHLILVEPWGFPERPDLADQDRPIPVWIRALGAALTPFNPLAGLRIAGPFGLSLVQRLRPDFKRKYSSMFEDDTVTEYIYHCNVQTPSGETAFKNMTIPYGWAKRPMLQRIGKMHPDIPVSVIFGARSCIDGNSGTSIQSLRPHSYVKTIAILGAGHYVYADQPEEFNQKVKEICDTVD
Chain of Perilipin-1/ABHD5 (O60240 whole entry, the tested form may be a part): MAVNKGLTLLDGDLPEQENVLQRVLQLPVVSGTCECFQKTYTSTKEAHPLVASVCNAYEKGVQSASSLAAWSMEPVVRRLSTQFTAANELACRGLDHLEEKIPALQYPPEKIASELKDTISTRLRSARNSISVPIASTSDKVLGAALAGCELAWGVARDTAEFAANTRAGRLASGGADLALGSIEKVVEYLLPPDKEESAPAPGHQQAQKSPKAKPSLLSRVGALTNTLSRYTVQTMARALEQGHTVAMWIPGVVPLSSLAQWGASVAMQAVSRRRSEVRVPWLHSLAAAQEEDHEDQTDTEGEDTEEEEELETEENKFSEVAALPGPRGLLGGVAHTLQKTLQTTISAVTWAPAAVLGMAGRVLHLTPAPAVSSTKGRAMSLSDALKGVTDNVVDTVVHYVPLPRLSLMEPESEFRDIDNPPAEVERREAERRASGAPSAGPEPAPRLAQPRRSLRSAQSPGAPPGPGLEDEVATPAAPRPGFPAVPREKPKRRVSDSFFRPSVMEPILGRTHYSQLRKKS

[3] = biological target: T2, Mannose-6-phosphate isomerase (Homo sapiens, UniProt P34949); assay: human PMI inhibitors, high substrate, primary screen, biochemical, fluorescence intensity, high mannose 6-phosphate (AID 1220)
T2 sequence (P34949 whole entry): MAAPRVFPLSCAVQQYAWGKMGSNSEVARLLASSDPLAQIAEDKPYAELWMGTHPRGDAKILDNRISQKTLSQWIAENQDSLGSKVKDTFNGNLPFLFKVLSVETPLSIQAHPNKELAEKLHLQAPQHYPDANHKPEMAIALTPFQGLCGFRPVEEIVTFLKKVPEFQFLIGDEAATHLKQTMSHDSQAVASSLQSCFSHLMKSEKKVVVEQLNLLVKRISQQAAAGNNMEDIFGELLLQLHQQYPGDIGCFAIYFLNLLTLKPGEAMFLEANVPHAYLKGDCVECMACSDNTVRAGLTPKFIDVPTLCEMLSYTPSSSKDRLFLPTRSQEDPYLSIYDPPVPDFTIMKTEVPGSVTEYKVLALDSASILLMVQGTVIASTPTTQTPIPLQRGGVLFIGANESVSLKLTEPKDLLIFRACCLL

Genome polyprotein = Genome polyprotein (dengue virus type 2, UniProt P29990); assay: Dengue-2 NS5 methyltransferase inhibitors, primary screen, biochemical, confirmation dose response (AID 588689); assay type: functional
[4] = biological target: T1, Polyadenylate-binding protein 1; assay: PABP1 MLLE–PAM2 binding inhibitor potency, dose response, biochemical, fluorescence polarization, FITC-PAM2 peptide (AID 602259); assay type: functional; conditions: read-out: IC50_Mean
[5] = biological target: Eukaryotic translation initiation factor 4H (Homo sapiens, UniProt Q15056); assay: eIF4H inhibition in translation initiation, SAR follow-up (AID 435011); assay type: functional
[6] = biological target: T1, Polyadenylate-binding protein 1; assay: PABP inhibition in translation initiation, SAR follow-up (AID 435018); assay type: functional
J774.A1 = assay: Confirmation of image-based Screening Assay for Inhibitors of Phagocytosis. [Related pubchem assays (depositor defined):AID1029, AID1643]; assay type: functional, cell-based; conditions: Mus musculus
[7] = biological target: T3, Alkaline phosphatase, tissue-nonspecific isozyme (Homo sapiens, UniProt P05186); assay: human TNAP enzyme inhibitors, SAR follow-up, biochemical, luminescent, dose response (AID 1056)
T3 sequence (P05186 whole entry): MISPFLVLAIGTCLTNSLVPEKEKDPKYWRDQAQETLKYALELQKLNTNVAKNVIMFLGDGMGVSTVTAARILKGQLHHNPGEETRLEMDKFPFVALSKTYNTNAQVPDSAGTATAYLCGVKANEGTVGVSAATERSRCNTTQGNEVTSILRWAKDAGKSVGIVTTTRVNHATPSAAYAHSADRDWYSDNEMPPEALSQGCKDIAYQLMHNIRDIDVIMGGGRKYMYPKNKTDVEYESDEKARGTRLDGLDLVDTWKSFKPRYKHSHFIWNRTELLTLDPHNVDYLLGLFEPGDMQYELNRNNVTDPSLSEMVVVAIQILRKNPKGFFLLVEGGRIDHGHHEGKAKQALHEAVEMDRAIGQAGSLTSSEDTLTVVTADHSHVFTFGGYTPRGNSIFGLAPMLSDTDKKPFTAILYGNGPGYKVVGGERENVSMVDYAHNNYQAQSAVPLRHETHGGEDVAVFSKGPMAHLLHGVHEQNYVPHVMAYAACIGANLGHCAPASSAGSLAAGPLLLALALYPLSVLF

[8] = biological target: Alkaline phosphatase, placental type (Homo sapiens, UniProt P05187); assay: PLAP enzyme inhibitors, confirmation, biochemical, luminescence (AID 1512); assay type: functional
[9] = biological target: Low molecular weight phosphotyrosine protein phosphatase (Homo sapiens, UniProt P24666); assay type: functional; conditions: read-out: IC50_Mean;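 note: Dose-response confirmation assay measuring inhibition of LMPTP enzyme activity by fluorescence intensity read-out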
Chain of Low molecular weight phosphotyrosine protein phosphatase (P24666 whole entry, the tested form may be a part): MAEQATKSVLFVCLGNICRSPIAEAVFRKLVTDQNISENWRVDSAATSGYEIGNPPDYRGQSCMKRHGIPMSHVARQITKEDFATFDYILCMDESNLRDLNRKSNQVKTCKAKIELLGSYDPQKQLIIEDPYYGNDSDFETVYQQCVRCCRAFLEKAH

[10] = biological target: Type-1 angiotensin II receptor (Homo sapiens, UniProt P30556); assay: AT1 receptor agonists, dose response, selectivity assay for APJ receptor agonist project, cell-based, uHTS hits (AID 488865); assay type: functional;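 note: beta-arrestin recruitment to AT1 measured by enzyme fragment complementation luminescence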
Chain of Type-1 angiotensin II receptor (P30556 whole entry, the tested form may be a part): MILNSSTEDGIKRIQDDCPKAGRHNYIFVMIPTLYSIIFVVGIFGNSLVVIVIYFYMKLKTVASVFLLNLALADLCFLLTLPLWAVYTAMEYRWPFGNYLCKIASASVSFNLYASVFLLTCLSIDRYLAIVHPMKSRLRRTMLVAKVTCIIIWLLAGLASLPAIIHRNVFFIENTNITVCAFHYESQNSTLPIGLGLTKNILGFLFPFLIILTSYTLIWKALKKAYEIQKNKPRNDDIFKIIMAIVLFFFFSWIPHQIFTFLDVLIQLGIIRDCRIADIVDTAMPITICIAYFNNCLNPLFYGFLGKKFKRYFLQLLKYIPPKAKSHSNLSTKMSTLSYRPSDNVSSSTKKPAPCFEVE

[11] = biological target: DNA dC->dU-editing enzyme APOBEC-3A (Homo sapiens, UniProt P31941); assay: Dose Response confirmation of small molecule APOBEC3A DNA Deaminase Inhibitors via a fluorescence-based single-stranded DNA deaminase assay. [Related pubchem assays (depositor defined):AID493011, AID493024]; assay type: functional
Chain of DNA dC->dU-editing enzyme APOBEC-3A (P31941 whole entry): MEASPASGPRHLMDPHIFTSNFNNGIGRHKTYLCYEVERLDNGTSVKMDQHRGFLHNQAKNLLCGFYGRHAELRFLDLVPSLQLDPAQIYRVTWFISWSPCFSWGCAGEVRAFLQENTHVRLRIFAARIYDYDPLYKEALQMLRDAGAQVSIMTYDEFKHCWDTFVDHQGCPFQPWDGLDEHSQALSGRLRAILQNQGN

[12] = biological target: DNA dC->dU-editing enzyme APOBEC-3G (Homo sapiens, UniProt Q9HC16); assay type: functional;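 note: Dose-response counterscreen measuring inhibition of APOBEC3G DNA deaminase activity, run while confirming APOBEC3A inhibitors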
[13] = HepG2 cell cytotoxicity, dose response, cytotoxicity control for non-replicating M. tuberculosis project (AID 489018); assay type: functional; conditions: Mycobacterium tuberculosis
[14] = Vero E6 cell cytotoxicity, dose response, cytotoxicity control for non-replicating M. tuberculosis project, secondary assay (AID 492998); assay type: functional, VeroE6; conditions: Vero C1008
[15] = THP-1 cell cytotoxicity, dose response, cytotoxicity control for non-replicating M. tuberculosis project (AID 489025); assay type: functional
[16] = microbe, parasite or virus in culture; assay type: functional; conditions: Mycobacterium tuberculosis
cells = assay type: functional
[17] = biological target: Delta-type opioid receptor (Homo sapiens, UniProt P41143); assay: SAR Analysis of Antagonists of the DOR Receptor using an Image-Based Assay - Set 3. [Related pubchem assays (depositor defined):AID1777, AID1785]; assay type: functional;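 note: U2OS cells expressing DOR1 and beta-arrestin GFP stimulated with 100 nM SNC80; imaging of GFP-tagged beta-arrestin moving into spots after receptor activation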
Chain of Delta-type opioid receptor (P41143 whole entry): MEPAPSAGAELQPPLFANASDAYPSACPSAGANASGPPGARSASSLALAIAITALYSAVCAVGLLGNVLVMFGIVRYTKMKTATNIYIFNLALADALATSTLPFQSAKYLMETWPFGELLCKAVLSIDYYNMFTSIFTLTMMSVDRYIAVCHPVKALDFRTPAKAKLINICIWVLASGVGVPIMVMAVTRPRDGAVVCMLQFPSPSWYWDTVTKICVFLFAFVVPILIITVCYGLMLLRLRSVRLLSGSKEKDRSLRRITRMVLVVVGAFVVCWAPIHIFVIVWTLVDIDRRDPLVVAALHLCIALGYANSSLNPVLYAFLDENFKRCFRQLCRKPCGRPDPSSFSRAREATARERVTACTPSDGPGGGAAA

[18] = biological target: T4, Kappa-type opioid receptor (Homo sapiens, UniProt P41145); assay: SAR analysis of Antagonists of the Kappa Opioid Receptor (KOR) using an Image-Based Assay - Set 4. [Related pubchem assays (depositor defined):AID1777, AID1785]; assay type: functional
T4 sequence (P41145 whole entry): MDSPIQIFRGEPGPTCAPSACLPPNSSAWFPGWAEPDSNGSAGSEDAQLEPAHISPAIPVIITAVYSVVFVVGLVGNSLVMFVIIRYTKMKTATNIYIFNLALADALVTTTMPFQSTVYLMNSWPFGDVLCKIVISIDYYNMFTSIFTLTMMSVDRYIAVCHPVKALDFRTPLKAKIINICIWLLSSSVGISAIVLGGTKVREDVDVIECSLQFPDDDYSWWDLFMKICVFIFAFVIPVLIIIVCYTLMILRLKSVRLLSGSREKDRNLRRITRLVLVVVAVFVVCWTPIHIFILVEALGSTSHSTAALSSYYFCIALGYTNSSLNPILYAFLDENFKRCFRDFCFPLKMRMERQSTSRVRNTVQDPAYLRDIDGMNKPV

Mu-type opioid receptor = Mu-type opioid receptor (Homo sapiens, UniProt P35372); assay: SAR Analysis of Antagonists of the MOR Receptor using an Image-Based Assay - Set 3. [Related pubchem assays (depositor defined):AID1777, AID1785, AID1786, AID1966, AID2133, AID2136, AID2284, AID2285, AID2420]; assay type: functional
Chain of Mu-type opioid receptor (P35372 whole entry): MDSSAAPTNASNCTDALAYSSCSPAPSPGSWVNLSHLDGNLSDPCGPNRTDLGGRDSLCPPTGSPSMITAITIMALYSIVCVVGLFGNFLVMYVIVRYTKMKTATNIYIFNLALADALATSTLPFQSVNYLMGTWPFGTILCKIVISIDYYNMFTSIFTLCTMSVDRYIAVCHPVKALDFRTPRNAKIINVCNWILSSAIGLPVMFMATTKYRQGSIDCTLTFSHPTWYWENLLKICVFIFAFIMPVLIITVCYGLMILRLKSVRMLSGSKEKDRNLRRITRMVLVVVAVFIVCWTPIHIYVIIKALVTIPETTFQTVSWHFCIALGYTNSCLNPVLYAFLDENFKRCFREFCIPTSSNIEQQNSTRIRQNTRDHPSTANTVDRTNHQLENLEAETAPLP

[19] = biological target: T4, Kappa-type opioid receptor; assay: SAR analysis of small molecule antagonists of the kappa opioid receptor via a luminescent beta-arrestin assay - Set 3. [Related pubchem assays (depositor defined):AID1777, AID1778, AID1785, AID1786, AID1966, AID2133, AID2136, AID2285, AID2495]; assay type: functional
[20] = biological target: T5, Tyrosine-protein phosphatase non-receptor type 7 (Homo sapiens, UniProt P35236); assay: redox-dependent HePTP inhibition, mechanism study, biochemical, fluorescence (AID 2068); assay type: functional
T5 sequence (P35236 whole entry): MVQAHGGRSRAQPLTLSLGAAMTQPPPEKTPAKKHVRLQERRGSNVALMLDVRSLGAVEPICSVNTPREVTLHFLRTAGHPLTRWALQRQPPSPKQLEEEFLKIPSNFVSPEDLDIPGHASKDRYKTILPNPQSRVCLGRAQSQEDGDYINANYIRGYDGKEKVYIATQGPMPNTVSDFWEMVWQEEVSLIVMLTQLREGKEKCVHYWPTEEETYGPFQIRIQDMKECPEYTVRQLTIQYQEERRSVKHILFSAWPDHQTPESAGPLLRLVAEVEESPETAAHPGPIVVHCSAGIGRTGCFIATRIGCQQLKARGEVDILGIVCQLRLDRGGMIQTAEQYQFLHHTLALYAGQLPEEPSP

[21] = biological target: T4, Kappa-type opioid receptor; assay: SAR analysis of Antagonists of the Kappa Opioid Receptor (KOR) using an Image-Based Assay - Set 3. [Related pubchem assays (depositor defined):AID1777, AID1785]; assay type: functional
[22] = biological target: T6, Probable nicotinate-nucleotide adenylyltransferase (Staphylococcus aureus (strain N315), UniProt P65502); assay type: functional, Staphylococcus aureus subsp. aureus N315;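 for IC50 Mean: confirmatory dose-response retesting of NadD inhibitor hits first found in an ultra-high-throughput screen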
T6 sequence (P65502 whole entry): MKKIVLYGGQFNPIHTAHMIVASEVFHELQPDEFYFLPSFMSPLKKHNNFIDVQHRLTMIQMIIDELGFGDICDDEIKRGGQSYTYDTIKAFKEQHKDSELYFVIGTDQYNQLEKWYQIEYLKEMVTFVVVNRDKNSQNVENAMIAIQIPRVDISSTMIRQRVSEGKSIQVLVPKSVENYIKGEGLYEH

[23] = biological target: T7, Small ubiquitin-related modifier 1 (Homo sapiens, UniProt P63165); assay: inhibitors of SUMO1 partner interactions, dose response, biochemical, FRET (AID 624383); assay type: functional; conditions: read-out: IC50_Mean
T7 sequence (P63165 whole entry): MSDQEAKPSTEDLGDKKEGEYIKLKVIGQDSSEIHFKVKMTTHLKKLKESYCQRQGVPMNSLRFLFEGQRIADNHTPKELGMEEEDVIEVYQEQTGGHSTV

HeLa = assay: HeLa cell cytotoxicity, dose response, cytotoxicity control, 24 h, cherry-picked samples (AID 504726); assay type: functional, cell-based; conditions: Homo sapiens;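 note: potency for cytotoxicity as loss of luminescence signal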
[24] = biological target: T6, Probable nicotinate-nucleotide adenylyltransferase; assay type: functional, Staphylococcus aureus subsp. aureus N315; conditions: read-out: IC50_Mean
ORF 73 = ORF 73 (Human herpesvirus 8, UniProt O40947); assay: inhibitors of C-LANA binding to LBS DNA, dose response, biochemical, fluorescence polarization, cherry-picked samples (AID 504725); set-up: species or system Human gammaherpesvirus 8;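 note: fluorescence polarization of a labeled DNA duplex reporting LANA DNA binding; potency is for inhibitors that block LANA binding to the DNA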
[25] = biological target: T7, Small ubiquitin-related modifier 1; assay: inhibitors of SUMO1 peptide binding, dose response, biochemical, fluorescence polarization, uHTS hits (AID 624382); assay type: functional; conditions: read-out: IC50_Mean
[26] = biological target: T8, Rac GTPase-activating protein 1 (Homo sapiens, UniProt Q9H0H5); assay: MgcRacGAP GTPase-activating activity inhibitors, confirmation, biochemical, ADP Hunter fluorescence, primary and confirmatory (AID 624330); assay type: functional
T8 sequence (Q9H0H5 whole entry): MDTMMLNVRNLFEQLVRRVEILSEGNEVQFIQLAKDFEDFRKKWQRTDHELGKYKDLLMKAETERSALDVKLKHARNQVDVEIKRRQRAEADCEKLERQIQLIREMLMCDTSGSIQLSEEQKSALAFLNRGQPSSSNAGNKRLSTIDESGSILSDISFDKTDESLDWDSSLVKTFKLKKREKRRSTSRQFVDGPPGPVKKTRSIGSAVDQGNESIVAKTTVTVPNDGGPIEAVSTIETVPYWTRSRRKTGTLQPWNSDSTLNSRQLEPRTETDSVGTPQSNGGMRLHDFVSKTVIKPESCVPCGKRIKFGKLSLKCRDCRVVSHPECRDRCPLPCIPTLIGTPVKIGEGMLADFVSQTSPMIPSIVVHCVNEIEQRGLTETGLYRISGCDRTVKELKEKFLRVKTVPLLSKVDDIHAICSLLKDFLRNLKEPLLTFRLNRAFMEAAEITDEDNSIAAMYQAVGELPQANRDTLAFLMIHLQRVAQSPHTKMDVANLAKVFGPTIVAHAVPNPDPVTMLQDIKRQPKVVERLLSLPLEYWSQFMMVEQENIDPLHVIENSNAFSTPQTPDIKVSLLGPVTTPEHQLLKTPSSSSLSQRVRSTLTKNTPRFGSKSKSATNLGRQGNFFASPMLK

Beta-galactosidase = Beta-galactosidase (Escherichia coli, UniProt Q8VNN2); assay type: functional
Chain of Beta-galactosidase (Q8VNN2 whole entry): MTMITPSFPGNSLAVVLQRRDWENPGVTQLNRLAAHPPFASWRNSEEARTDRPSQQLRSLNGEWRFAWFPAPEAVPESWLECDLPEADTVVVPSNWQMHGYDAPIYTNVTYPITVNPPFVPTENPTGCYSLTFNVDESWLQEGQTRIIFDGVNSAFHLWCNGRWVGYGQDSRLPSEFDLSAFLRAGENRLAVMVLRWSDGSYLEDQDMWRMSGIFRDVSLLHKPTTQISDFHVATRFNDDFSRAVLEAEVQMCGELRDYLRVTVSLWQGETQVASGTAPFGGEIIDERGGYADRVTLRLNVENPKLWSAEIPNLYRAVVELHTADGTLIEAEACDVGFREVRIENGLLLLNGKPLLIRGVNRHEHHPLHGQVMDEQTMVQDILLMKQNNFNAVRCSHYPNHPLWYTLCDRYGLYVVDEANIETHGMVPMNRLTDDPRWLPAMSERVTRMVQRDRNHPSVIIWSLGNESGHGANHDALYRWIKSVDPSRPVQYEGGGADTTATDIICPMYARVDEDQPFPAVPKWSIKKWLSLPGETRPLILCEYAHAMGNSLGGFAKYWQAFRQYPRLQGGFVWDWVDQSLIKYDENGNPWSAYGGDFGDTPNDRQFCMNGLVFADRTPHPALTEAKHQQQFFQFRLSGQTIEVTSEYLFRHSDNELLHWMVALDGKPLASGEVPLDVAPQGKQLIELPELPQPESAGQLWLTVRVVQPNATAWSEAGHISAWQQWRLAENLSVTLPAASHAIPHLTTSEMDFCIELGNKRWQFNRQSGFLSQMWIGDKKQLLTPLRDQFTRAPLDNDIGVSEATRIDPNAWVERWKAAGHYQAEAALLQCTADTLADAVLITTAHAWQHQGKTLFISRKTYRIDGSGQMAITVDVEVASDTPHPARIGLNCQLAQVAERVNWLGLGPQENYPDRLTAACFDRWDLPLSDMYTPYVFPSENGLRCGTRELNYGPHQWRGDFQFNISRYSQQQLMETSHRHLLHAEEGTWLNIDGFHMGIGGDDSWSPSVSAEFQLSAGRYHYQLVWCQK

[27] = biological target: T4, Kappa-type opioid receptor; assay type: functional
[28] = biological target: T4, Kappa-type opioid receptor; assay type: functional; remark: listed apart in the source

COc1cc(/C=C2\C(=O)NC(=O)N(c3ccccc3)C2=O)c([N+](=O)[O-])cc1OC
IC50 [1]: 3.41 µM (active) | IC50 [2]: 53.9 µM (inactive) | IC50 (Perilipin-1/ABHD5): 3.29 µM (active) | IC50 [3]: > 50 µM (not active) | IC50 (Genome polyprotein): 17.3 µM (active) | IC50 [4]: 42.8 µM (inactive)

Cc1ccccc1NC(=O)CSc1ccc(-c2ccco2)nn1
IC50 [5]: > 100 µM (inactive) | IC50 [6]: > 100 µM (inactive)

Cc1c(C=NNC(=O)C2COc3ccccc3O2)c2ccccc2n1C (centres undefined)
IC50 (J774.A1): > 25 µM (inactive)

COC(=O)c1cc(-c2c[nH]c3ccccc23)[nH]n1
IC50 [7]: 1.67 µM (active) and 906 nM (active) | IC50 [8]: > 100 µM (inactive)

COc1cc2c(cc1NC(=O)c1cccc([N+](=O)[O-])c1)oc1ccccc12
IC50 [9]: 14.2 µM (active) | EC50 [10]: > 100 µM (inactive)

Cc1nc(O)c(C#N)c(C)c1CCC(=O)Nc1cc(S(C)(=O)=O)ccc1Cl
IC50 [11]: 9.97 µM (active) | IC50 [12]: 11.7 µM (active)

COc1cccc(-c2nnc(NC(=O)c3ccc(S(=O)(=O)N4CCOCC4)cc3)o2)c1
CC50 [13]: 13.9 µM (active) | CC50 [14]: 7.2 µM (active) | CC50 [15]: 8.51 µM (active) | CC50 [16]: 19.7 µM (active) | IC50 (cells): 22.8 µM (active)

COc1ccc(CN(CCNC(=O)c2ccc(CNS(=O)(=O)c3ccccc3)cc2)C(C)C)cc1
IC50 [17]: > 32 µM (inactive) | IC50 [18]: 1.79 µM (active) | IC50 (Mu-type opioid receptor): 14.3 µM (inactive) | IC50 [19]: 5.58 µM (active)

CCOC(=O)CCNC(=O)Nc1ccc2nc(-c3ccco3)c(-c3ccco3)nc2c1
IC50 [20]: 0.683 µM (active)

O=C(Cn1c(=O)c2cccn2c2ccc(F)cc21)NCCCN1CCN(c2ccc(F)cc2)CC1
IC50 [17]: > 32 µM (inactive) | IC50 [21]: 14.6 µM (inactive) | IC50 (Mu-type opioid receptor): > 32 µM (inactive) | IC50 [19]: > 20 µM (inactive)

O=S(=O)(O)c1cc(O)c2ccc(Nc3ccccc3)cc2c1
IC50 [22]: 15.9 µM (active) | IC50 [23]: 2.16 µM (active) | AC50 (HeLa): 241 µM (active) | IC50 [24]: 40.3 µM (active) | AC50 (ORF 73): 95.9 µM (active) | IC50 [25]: > 66.6 µM (inactive) | IC50 [26]: 40.9 µM (active)

CC/C(=N\Nc1ccnc2cc(Cl)ccc12)c1ccc(O)cc1
EC50 (Beta-galactosidase): > 31.5 µM (inactive) | IC50 [27]: 2.46 µM | IC50 [28]: 4.88 µM (active)
